Results taken from ChEMBL document CHEMBL1201862, “PubChem BioAssay data set” (2004).
Active and inactive are the calls of the source.

Assays:
[1] = target: Cytochrome P450 3A4 (Homo sapiens, UniProt P08684); settings: Potency;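 note: confirmatory qHTS run detecting inhibitors and substrates of CYP3A4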
[2] = NIH-3T3 fibroblast cytotoxicity, dose response, cytotoxicity control, cell-based, fluorescence, Alamar Blue, secondary assay (AID 2327); format: functional;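 note: NIH-3T3 mouse fibroblasts cultured with fluconazole at 8 µg/mL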
[3] = target: T1, RNA-binding protein pos-1 (Caenorhabditis elegans, UniProt G5EF15); experiment: inhibitors of POS-1/mex-3 RNA binding, dose response, biochemical, fluorescence polarization (AID 1964);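 note: purified POS-1 fused to maltose binding protein made in E. coli; potency of compounds blocking POS-1 binding to fluorescent RNA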
T1 sequence (G5EF15 whole entry): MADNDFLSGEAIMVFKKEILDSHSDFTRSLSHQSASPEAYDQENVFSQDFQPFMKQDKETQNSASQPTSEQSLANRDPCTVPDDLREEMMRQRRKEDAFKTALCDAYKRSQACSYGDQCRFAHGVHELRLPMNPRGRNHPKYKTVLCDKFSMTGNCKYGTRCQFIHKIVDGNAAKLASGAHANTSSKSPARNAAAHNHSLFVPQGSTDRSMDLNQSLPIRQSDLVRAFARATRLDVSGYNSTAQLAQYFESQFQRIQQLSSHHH

[4] = target: T2, Zinc finger protein mex-5 (Caenorhabditis elegans, UniProt Q9XUB2); experiment: MEX-5/TCR-2 RNA interaction inhibitors, dose response, biochemical, C. elegans, fluorescence polarization (AID 1960)
T2 sequence (Q9XUB2 whole entry): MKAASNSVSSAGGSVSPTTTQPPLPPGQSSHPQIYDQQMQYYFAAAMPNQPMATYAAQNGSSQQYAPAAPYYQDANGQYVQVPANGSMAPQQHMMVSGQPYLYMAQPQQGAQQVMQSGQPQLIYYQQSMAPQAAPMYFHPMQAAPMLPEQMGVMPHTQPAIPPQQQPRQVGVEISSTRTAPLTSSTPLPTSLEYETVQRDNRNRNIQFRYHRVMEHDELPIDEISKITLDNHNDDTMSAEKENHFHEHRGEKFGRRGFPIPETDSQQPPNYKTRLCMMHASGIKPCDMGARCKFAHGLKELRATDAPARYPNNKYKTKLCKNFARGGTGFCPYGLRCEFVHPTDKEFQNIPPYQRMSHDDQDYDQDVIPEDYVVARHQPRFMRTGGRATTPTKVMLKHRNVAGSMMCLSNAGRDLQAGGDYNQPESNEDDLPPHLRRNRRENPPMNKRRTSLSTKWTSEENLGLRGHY

[5] = C. albicans growth with fluconazole, confirmation, fluorescence, retest (AID 2467); format: functional, cell-based
[6] = target: Large T antigen (Simian virus 40, UniProt P03070); format: functional, Betapolyomavirus macacae;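 note: Confirmatory-stage PubChem screen for compounds that inhibit SV40 T antigen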
Large T antigen, sequence (P03070 whole entry, the tested form may be a part): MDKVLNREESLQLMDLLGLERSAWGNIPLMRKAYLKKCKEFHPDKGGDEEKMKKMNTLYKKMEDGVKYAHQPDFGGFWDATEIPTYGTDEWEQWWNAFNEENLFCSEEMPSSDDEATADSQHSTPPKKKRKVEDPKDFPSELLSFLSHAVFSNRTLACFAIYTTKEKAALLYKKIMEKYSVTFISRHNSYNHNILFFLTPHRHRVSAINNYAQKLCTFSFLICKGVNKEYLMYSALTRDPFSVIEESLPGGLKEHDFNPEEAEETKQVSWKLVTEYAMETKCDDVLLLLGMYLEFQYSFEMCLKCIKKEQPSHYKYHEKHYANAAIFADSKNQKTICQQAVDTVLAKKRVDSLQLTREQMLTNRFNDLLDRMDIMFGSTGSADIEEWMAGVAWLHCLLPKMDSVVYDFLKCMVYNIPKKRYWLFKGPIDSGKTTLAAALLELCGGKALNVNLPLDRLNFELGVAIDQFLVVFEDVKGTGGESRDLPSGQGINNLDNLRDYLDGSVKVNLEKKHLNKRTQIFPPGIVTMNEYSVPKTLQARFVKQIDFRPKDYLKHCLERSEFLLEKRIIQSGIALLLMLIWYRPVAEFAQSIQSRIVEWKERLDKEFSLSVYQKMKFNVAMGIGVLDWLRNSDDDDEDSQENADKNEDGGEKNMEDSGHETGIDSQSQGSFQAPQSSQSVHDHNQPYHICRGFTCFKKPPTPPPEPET

[7] = inhibitors of HIV Env-driven cell fusion, dose response, cherry-pick (AID 652057); format: functional, cell-based
[8] = ZM109 Env clade C HIV-1 fusion inhibitors, dose response, HeLa effector, CEM target cells, luciferase, cherry-pick (AID 652058); format: functional, cell-based
[9] = off-target signal loss in HeLa-CEM21 co-culture – HeLa F-luc CTL cells, cherry-picked, counter-screen for HIV-1 Env fusion inhibitor project, dose response (AID 652040); format: functional, cell-based;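 note: potency for signal decrease marking cytotoxic or nonspecific inhibition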
[10] = inhibitors of clade B AD8 Env fusion, dose response, cell-based, cherry-pick (AID 652062); format: functional;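 note: luciferase signal from cell-cell fusion driven by HIV-1 clade B AD8 Env; potency is for inhibitors of fusion seen as a drop in luminescence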
[11] = target: T3, Heat shock factor protein 1 (Mus musculus, UniProt P38532); experiment: inhibition of MG132-induced HSE-luciferase signal, confirmation, cell-based, NIH3T3, luminescence, dose retest (AID 2382); format: functional;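 note: NIH3T3 fibroblasts with HSF1-driven luciferase reporter stressed by proteasome inhibitor MG132; luminescence from HSF1-driven luciferase expression after 8 hours of MG132 stress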
T3 sequence (P38532 whole entry): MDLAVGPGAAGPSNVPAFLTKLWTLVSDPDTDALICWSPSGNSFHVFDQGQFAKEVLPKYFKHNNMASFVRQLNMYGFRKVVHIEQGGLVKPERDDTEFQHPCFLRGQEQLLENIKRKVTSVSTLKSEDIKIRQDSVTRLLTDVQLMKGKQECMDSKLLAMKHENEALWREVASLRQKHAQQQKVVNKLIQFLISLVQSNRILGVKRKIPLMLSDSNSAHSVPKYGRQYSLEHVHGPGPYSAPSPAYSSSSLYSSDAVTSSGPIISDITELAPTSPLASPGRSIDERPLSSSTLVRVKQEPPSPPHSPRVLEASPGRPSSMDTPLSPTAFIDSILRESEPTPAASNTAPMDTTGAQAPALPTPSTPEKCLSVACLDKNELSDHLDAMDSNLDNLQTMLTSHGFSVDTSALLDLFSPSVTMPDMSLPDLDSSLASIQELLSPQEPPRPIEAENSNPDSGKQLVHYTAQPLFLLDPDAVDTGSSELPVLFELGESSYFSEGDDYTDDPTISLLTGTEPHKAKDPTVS

[12] = target: T4, Rac GTPase-activating protein 1 (Homo sapiens, UniProt Q9H0H5); experiment: MgcRacGAP GTPase-activating activity inhibitors, confirmation, biochemical, ADP Hunter fluorescence, primary and confirmatory (AID 624330); format: functional
T4 sequence (Q9H0H5 whole entry): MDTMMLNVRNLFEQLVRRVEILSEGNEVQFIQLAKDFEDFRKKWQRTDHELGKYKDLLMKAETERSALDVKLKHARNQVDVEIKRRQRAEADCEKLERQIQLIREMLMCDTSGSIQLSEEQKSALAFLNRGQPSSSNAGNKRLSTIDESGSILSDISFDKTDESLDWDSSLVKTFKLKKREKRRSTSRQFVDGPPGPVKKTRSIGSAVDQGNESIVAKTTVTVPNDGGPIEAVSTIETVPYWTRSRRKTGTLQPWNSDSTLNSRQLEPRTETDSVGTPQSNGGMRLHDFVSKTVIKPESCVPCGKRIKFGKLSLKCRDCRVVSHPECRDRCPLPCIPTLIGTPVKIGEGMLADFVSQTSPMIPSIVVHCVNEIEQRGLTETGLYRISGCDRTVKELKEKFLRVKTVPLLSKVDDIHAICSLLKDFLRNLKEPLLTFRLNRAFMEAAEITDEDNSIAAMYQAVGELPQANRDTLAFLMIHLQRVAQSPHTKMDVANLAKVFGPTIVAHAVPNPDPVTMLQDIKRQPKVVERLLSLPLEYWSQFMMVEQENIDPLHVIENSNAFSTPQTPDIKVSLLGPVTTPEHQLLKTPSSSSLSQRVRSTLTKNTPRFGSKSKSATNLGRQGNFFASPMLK

[13] = inhibitors of intracellular T. cruzi replication, confirmation, NIH3T3 host cells, beta-gal luminescence (AID 2044); format: functional, cell-based;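 note: intracellular parasites grown in NIH/3T3 mouse fibroblasts as host cells; luminescent beta-galactosidase reporter signal from transgenic T. cruzi replicating inside host cells; inhibitors lower the luminescence signal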
[14] = cytotoxicity toward NIH3T3 fibroblasts, dose response, counter-screen, cell-based, ATP luminescence, mouse fibroblasts (AID 2010); format: functional;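 note: cells exposed to compound for about 90 hours before reading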
[15] = intracellular Trypanosoma cruzi inhibitors in host cells – cell-based, plate reader, cherry-pick samples, set 3, dose response (AID 651818); format: functional;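 note: compounds incubated with infected cells for about four days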

Cytochrome P450 3A4, sequence (P08684 whole entry): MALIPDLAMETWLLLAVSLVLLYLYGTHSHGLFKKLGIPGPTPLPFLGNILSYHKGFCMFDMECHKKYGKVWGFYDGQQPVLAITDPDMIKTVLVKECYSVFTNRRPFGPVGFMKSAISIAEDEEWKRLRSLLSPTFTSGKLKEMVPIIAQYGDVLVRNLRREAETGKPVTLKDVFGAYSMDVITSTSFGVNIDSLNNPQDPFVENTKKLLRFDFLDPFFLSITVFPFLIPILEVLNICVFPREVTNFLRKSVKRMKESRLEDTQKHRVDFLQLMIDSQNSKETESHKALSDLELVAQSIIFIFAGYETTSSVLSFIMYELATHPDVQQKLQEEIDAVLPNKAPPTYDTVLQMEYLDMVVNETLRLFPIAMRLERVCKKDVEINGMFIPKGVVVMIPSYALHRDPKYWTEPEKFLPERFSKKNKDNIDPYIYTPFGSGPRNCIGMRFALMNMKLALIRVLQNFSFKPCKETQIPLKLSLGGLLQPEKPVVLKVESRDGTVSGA

With `CCCn1c(C)nc2c(NC(C)CCCN(CC)CC)nc(C)nc21` (stereo not given) the AC50 [1] was 25.1 µM (inconclusive).
With `COc1cc(/C=C2\C(=O)NN(c3ccccc3)C2=O)cc([N+](=O)[O-])c1O` the EC50 [2] was 21.2 µM (inconclusive), the EC50 [3] was > 300 µM (not active) and the EC50 [4] was 37.5 µM (active). The EC50 [5] was > 38 µM (not active) and the IC50 [6] was > 100 µM (active).
In the case of `CN1CC(CO)=C[C@H]2c3cccc4[nH]cc(c34)C[C@H]21`, the AC50 [1] is reported as 39.8 µM (inconclusive).
In the case of `CCC1=C(OC(=O)N(CC)CC)N2C(=O)O/C(=N\CCOC)[C@]2(C)[C@H]2C1=CC[C@H]1C(=O)N(C)C(=O)[C@H]12`, the AC50 [1] is reported as 10 µM (inconclusive).
For `COC(=O)/C=C/C(=O)Nc1ccc(O)c(Cl)c1`, the IC50 [6] was 11.7 µM (active).
With `COc1cc(/C=C/C(=O)OCC(=O)Nc2ccc(S(N)(=O)=O)cc2)ccc1O` the IC50 [6] was 20 µM (active).
With `Oc1ccc(Nc2nc(Cl)nc(NCc3ccco3)n2)cc1` the IC50 [6] was 10.7 µM (active).
For `CC(C)CNC(=O)c1ccccc1NC(=O)c1ccccc1N(C)S(=O)(=O)c1ccccc1`, the AC50 [7] was 0.961 µM (active), the AC50 [8] was 0.937 µM (active) and the AC50 [9] was 1.62 µM (active). For the same compound, the AC50 [10] was 0.261 µM (active).
For `CCOc1ccc(NCc2cccn2-c2nnc(N3CCC(C(=O)NCCCN4CCCCC4)CC3)s2)cc1`, the EC50 [11] was > 195 µM (not active) and the IC50 [12] was 64.7 µM (active).
With `CN(Cc1ccc(Cl)cc1Cl)C(=O)c1cccc(S(=O)(=O)N2CCN(c3ccccc3)CC2)c1` the EC50 [13] was 1.64 µM (active), the EC50 [14] was > 60 µM (not active) and the AC50 [7] was 23.9 µM (active). The AC50 [8] was 36 µM (active), the AC50 [9] was > 70 µM (inactive) and the AC50 [10] was 43 µM (active).
For `C=CCOC(=O)C(C(=O)CC)C(NC(=O)OC)c1ccc(F)cc1` (stereo not given), the AC50 [1] was 3.16 µM (inconclusive).
With `COc1ccc(-c2coc3cc(OC(C)=O)cc(OC(C)=O)c3c2=O)cc1` the AC50 [1] was 31.6 µM (inconclusive).
With `CC(=O)c1c(O)c(C)c(O)c2c1OC1=CC(=O)C(C(C)=O)C(=O)[C@@]12C` (stereo not given in full) the AC50 [1] was 12.6 µM (inconclusive).
For `COC(=O)c1ccc(C23CC4(C2)[C@H](CN(Cc2ccc(C(F)(F)F)cc2)[C@@H]4c2ccccc2)C3c2ccccc2)cc1` (stereo not given in full), the EC50 [3] was > 300 µM (not active), the EC50 [4] was > 300 µM (not active) and the AC50 [1] was 25.1 µM (inconclusive).
For `CCCc1nc(-c2ccccc2O)n(-c2ccccc2)n1`, the EC50 [11] was > 195 µM (not active).
For `Cn1cc(CN2CCc3ccccc3C2)c2ccccc21`, the EC50 [11] was > 195 µM (not active).
For `O=C(CCc1ccccc1)Nc1cccc([N+](=O)[O-])c1`, the EC50 [11] was > 195 µM (not active).
With `CCCCCn1c(SCC(=O)CC(=O)OCC)nc2cc(C(=O)N3CCC(C(N)=O)CC3)ccc2c1=O` the EC50 [11] was > 195 µM (not active).
In the case of `Cc1n[nH]c2ncc(C(=O)c3ccccc3O)cc12`, the AC50 [7] is reported as 6.5 µM (active), the AC50 [8] is reported as 0.606 µM (active) and the AC50 [9] is reported as 2.78 µM (active). For the same compound, the AC50 [10] was 4.64 µM (active).
For `Cc1cc(OCC(=O)NCCc2ccc(S(N)(=O)=O)cc2)c2c(C)cc(=O)oc2c1`, the EC50 [11] was > 195 µM (not active).
In the case of `c1cnc2ccc(C(c3nnnn3C3CCCCC3)N3CCCCC3)cc2c1` (stereo not given), the AC50 [7] is reported as 4.05 µM (active), the AC50 [8] is reported as 14.9 µM (active) and the AC50 [9] is reported as 6.97 µM (active). The AC50 [10] was 10.1 µM (active).
With `C[C@H]1CN([C@@H](C)CO)C(=O)Cc2cc(NS(=O)(=O)c3ccccc3)ccc2O[C@H]1CN(C)Cc1ccc(C(=O)Nc2ccccc2N)cc1` the AC50 [15] was 3.55 µM (active).
For `C[C@H]1CN([C@@H](C)CO)C(=O)Cc2cc(N(C)C)ccc2O[C@H]1CN(C)Cc1ccc(Oc2ccccc2)cc1`, the AC50 [15] was 1.57 µM (active).
With `C[C@H]1CN([C@@H](C)CO)C(=O)Cc2cc(NS(=O)(=O)c3ccc(F)cc3)ccc2O[C@@H]1CN(C)Cc1ccc(-c2ccccc2)cc1` the AC50 [15] was 3.21 µM (active).
In the case of `C[C@H](CO)N1C[C@H](C)[C@H](CN(C)CC2CC2)Oc2c(NC(=O)Nc3ccc(C(F)(F)F)cc3)cccc2C1=O`, the AC50 [15] is reported as 2.66 µM (active).
For `C[C@@H]1CN([C@@H](C)CO)C(=O)c2cccc(NC(=O)C3CCCCC3)c2O[C@H]1CN(C)CC1CC1`, the AC50 [15] was 8.92 µM (active).
For `COc1ccc(S(=O)(=O)Nc2ccc3c(c2)C(=O)N([C@@H](C)CO)C[C@H](C)[C@H](CN(C)Cc2ccc(C(F)(F)F)cc2)O3)cc1`, the AC50 [15] was 4.07 µM (active).
With `COc1ccc(NC(=O)Nc2ccc3c(c2)CC(=O)N([C@@H](C)CO)C[C@H](C)[C@H](CN(C)Cc2ccc(-c4ccccc4)cc2)O3)cc1` the AC50 [15] was 3.37 µM (active).
For `C[C@H]1CN([C@@H](C)CO)C(=O)Cc2cc(NC(=O)Cc3cn(C)c4ccccc34)ccc2O[C@H]1CN(C)Cc1ccc(Oc2ccccc2)cc1`, the AC50 [15] was 5.58 µM (active).
In the case of `Cc1ccc(S(=O)(=O)N(C)C[C@@H]2Oc3ncc(Br)cc3C(=O)N([C@@H](C)CO)C[C@@H]2C)cc1`, the AC50 [7] is reported as 4.36 µM (active), the AC50 [8] is reported as 3.56 µM (active) and the AC50 [10] is reported as 9.72 µM (active).
With `Cc1cc(O)nc(N/N=C/c2c[nH]c3ccccc23)n1` the IC50 [6] was 24.6 µM (active).
For `O=C(COc1cccc2cccnc12)N/N=C/c1ccc(O)cc1`, the IC50 [6] was 19.5 µM (active) and the IC50 [12] was 77 µM (active).
With `COc1cc(/C=N/N2C(=O)C3C4C=CC(CC4)C3C2=O)ccc1O` (stereo not given) the IC50 [6] was 10.1 µM (active).
For `COc1ccc2c(c1)OCC(Cc1ccc(OC)c(OC(C)=O)c1)C2=O` (stereo not given) [DEOXYSAPPANONE B 7,3'-DIMETHYL ETHER ACETATE], the AC50 [1] was 39.8 µM (inconclusive).
With `Cc1cc(O)c(C=O)c2c1C(=O)Oc1c(COC(=O)/C=C/C(=O)O)c(O)c(C(=O)O)c(C)c1O2` [FUMARPROTOCETRARIC ACID] the AC50 [1] was 39.8 µM (inconclusive).
With `COc1cc2ccc(=O)oc2c2ccoc12` [SPHONDIN] the AC50 [1] was 3.98 µM (inconclusive).
